The values that follow come from patent US9738655B2, “Tetrahydroisoquinolines containing substituted azoles as factor XIa inhibitors” (BRISTOL-MYERS SQUIBB COMPANY, priority 2013, dated 2017).

The target of experiment [1] is purified human Factor XIa (Homo sapiens (Human), UniProt P03951). The experiment is described as follows: Factor XIa enzyme inhibition assay (chromogenic substrate S-2366). Conditions: read-out: Factor XIa Ki; measured at 25° C.
Protocol: The effectiveness of compounds of the present invention as inhibitors of the coagulation Factors XIa, VIIa, IXa, Xa, XIIa, plasma kallikrein or thrombin, can be determined using a relevant purified serine protease, respectively, and an appropriate synthetic substrate. The rate of hydrolysis of the chromogenic or fluorogenic substrate by the relevant serine protease was measured both in the absence and presence of compounds of the present invention. […] A decrease in the rate of absorbance or fluorescence change in the presence of inhibitor is indicative of enzyme inhibition. […] The results of this assay are expressed as the inhibitory constant, Ki.
Values of Ki were determined by allowing the protease to react with the substrate in the presence of the inhibitor.
Experiment [2] has as its target purified human plasma kallikrein (Homo sapiens (Human), UniProt P03952). Description: Plasma kallikrein enzyme inhibition assay (chromogenic substrate S-2302). It is filed as biochemical. Conditions: measured at 37° C. (*).

SMILES strings stand for the structures. Counter-ions that a name gives are not always drawn.

purified human Factor XIa, sequence (P03951 388-625): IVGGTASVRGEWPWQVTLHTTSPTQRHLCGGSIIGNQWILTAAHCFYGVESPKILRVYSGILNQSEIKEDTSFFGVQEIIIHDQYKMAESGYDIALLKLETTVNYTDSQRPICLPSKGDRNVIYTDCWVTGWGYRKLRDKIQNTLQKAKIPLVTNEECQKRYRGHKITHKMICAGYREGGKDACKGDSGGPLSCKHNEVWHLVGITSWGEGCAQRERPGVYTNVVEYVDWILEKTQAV
purified human Factor XIa, sequence (P03951 19-387 partner): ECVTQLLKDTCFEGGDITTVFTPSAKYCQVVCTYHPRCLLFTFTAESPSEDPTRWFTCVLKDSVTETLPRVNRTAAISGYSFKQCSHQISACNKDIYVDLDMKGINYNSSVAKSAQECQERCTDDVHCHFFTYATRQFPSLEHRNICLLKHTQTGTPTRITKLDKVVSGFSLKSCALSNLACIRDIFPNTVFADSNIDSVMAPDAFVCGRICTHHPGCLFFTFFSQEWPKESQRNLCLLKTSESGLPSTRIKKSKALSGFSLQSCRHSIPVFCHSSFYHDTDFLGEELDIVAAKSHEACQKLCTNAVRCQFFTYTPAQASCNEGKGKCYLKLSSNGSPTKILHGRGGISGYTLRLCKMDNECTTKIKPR
purified human plasma kallikrein, sequence (P03952 391-638): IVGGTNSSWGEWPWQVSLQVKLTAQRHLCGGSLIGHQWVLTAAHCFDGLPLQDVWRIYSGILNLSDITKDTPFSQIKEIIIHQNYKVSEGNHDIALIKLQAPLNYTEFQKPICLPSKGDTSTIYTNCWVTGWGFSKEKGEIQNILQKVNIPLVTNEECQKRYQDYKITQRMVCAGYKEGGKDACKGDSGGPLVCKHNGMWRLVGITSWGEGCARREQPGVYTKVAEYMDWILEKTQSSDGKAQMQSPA
purified human plasma kallikrein, sequence (P03952 20-390 partner): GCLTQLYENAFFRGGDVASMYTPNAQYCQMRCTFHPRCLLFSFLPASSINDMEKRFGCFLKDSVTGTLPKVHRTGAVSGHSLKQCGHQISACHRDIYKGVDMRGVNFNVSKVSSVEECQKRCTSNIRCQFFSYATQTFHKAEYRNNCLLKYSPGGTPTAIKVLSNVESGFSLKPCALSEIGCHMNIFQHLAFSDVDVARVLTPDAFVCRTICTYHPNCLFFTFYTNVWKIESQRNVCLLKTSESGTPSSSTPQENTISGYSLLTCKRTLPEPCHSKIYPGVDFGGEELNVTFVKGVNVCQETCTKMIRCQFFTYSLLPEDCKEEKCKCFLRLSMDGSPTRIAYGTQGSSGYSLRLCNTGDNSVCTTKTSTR

Consider `O=C(Nc1ccc(CO)cc1)C1c2cccc(Br)c2CCN1C(=O)c1cn(-c2cccc(Cl)c2F)nn1` (stereo not drawn) [Example 120, 5-Bromo-2-(1-(3-chloro-2-fluorophenyl)-1H-1,2,3-triazole-4-carbonyl)-N-(4-(hydroxymethyl)phenyl)-1,2,3,4-tetrahydroisoquinoline-1-carboxamide], for which the inhibitory constant (Ki) – broadly, a measure of affinity in units of concentration, obtained from inhibition or displacement – worked out at 3940 nM in experiment [1] and 517 nM in experiment [2].

As for `COC1CCN(c2cccc3c2CCN(C(=O)c2cn(-c4cccc(Cl)c4F)nn2)[C@H]3C(=O)Nc2ccc(CO)cc2)CC1` [Example 121, (R)-2-(1-(3-Chloro-2-fluorophenyl)-1H-1,2,3-triazole-4-carbonyl)-N-(4-(hydroxymethyl)phenyl)-5-(4-methoxypiperidin-1-yl)-1,2,3,4-tetrahydroisoquinoline-1-carboxamide], the Ki in experiment [1] turned out to be 1050 nM; in experiment [2], 7900 nM.

Regarding `COC1CCN(c2cccc3c2CCN(C(=O)c2cn(-c4cccc(Cl)c4F)nn2)[C@@H]3C(=O)Nc2ccc(CO)cc2)CC1` [Example 122, (S)-2-(1-(3-Chloro-2-fluorophenyl)-1H-1,2,3-triazole-4-carbonyl)-N-(4-(hydroxymethyl)phenyl)-5-(4-methoxypiperidin-1-yl)-1,2,3,4-tetrahydroisoquinoline-1-carboxamide], the Ki in experiment [1] turned out to be 16.8 nM; in experiment [2], 99.8 nM.

As for `O=C(O)c1ccc(NC(=O)C2c3cccc(OC4COC4)c3CCN2C(=O)c2cn(-c3cccc(Cl)c3F)nn2)cc1` (stereo not drawn) [Example 123, 4-(2-(1-(3-Chloro-2-fluorophenyl)-1H-1,2,3-triazole-4-carbonyl)-5-(oxetan-3-yloxy)-1,2,3,4-tetrahydroisoquinoline-1-carboxamido)benzoic acid], the inhibition constant (Ki) turned out to be 7.69 nM in experiment [1] and 21.1 nM in experiment [2].

For `CC1(COc2cccc3c2CCN(C(=O)c2cn(-c4cccc(Cl)c4F)nn2)C3C(=O)Nc2ccc(C(=O)O)cc2)COC1` (stereo not drawn) [Example 124, 4-(2-(1-(3-Chloro-2-fluorophenyl)-1H-1,2,3-triazole-4-carbonyl)-5-((3-methyloxetan-3-yl)methoxy)-1,2,3,4-tetrahydroisoquinoline-1-carboxamido)benzoic acid], the inhibition constant (Ki) was below 5 nM in experiment [1] and 36.2 nM in experiment [2].

In the case of `O=C(Nc1ccc(-c2ncc[nH]2)cc1)C1c2cccc(-c3cncnc3)c2CCN1C(=O)c1cn(-c2cccc(Cl)c2F)nn1` (stereo not drawn) [Example 126, N-(4-(1H-imidazol-2-yl)phenyl)-2-(1-(3-chloro-2-fluorophenyl)-1H-1,2,3-triazole-4-carbonyl)-5-(pyrimidin-5-yl)-1,2,3,4-tetrahy-droisoquinoline-1-carboxamide, TFA salt], the inhibitory constant (Ki) was below 5 nM in experiment [1] and 94 nM in experiment [2].

Turning to `O=C(Nc1ccc(-c2cc[nH]n2)cc1)C1c2cccc(-c3cncnc3)c2CCN1C(=O)c1cn(-c2cccc(Cl)c2F)nn1` (stereo not drawn) [Example 127, N-(4-(1H-pyrazol-3-yl)phenyl)-2-(1-(3-chloro-2-fluorophenyl)-1H-1,2,3-triazole-4-carbonyl)-5-(pyrimidin-5-yl)-1,2,3,4-tetrahydroisoquinoline-1-carboxamide, TFA salt], the results for the Ki in experiment [1] and in experiment [2] were below 5 nM and 196 nM, respectively.

Take `COC(=O)c1ccc2cc(NC(=O)C3c4cccc(-c5cncnc5)c4CCN3C(=O)c3cn(-c4cccc(Cl)c4F)nn3)ccc2n1` (stereo not drawn) [Example 128, methyl 6-(2-(1-(3-chloro-2-fluorophenyl)-1H-1,2,3-triazole-4-carbonyl)-5-(pyrimidin-5-yl)-1,2,3,4-tetrahydroisoquinoline-1-carboxamido) quinoline-2-carboxylate, TFA salt]: the inhibition constant (Ki) in experiment [1] is below 5 nM; in experiment [2] it was 65.3 nM.

Take `O=C(O)c1ccc2cc(NC(=O)C3c4cccc(-c5cncnc5)c4CCN3C(=O)c3cn(-c4cccc(Cl)c4F)nn3)ccc2n1` (stereo not drawn) [Example 129, 6-(2-(1-(3-chloro-2-fluorophenyl)-1H-1,2,3-triazole-4-carbonyl)-5-(pyrimidin-5-yl)-1,2,3,4-tetrahydroisoquinoline-1-carboxamido) quinoline-2-carboxylic acid, TFA salt]: the inhibition constant (Ki) is below 5 nM in experiment [1] and 34 nM in experiment [2].
